According to the supplement of paper PMC11208160:

Experiment: recombinant barcode read abundance after kanamycin selection (control-corrected) (log10(CPM+1)); higher = more efficient recombination; sequences stand for … in AGTGCAGAGAAAATCGGCCAGTTTTCTCTGCCTGCAGTCCGCATGCCGT…AGATTTATGCAGCGGACTGCCTTTCTCCCAAAGTGATAAACCGGACAGTATCATGGACCGGTTTTCCCGGTAATCCGTATTTGCAAGGTTGGTTTCACT; site = the 11-nt target
Method in brief: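 Recombination efficiency was calculated from barcode counts at recombinant junctions, normalized to counts per million, averaged and corrected by the control. Each value is given as log10(CPM+1). The constructs were Gibson-cloned oligos (promoter, target, barcode, J23119-driven first 104 bridge RNA bases) in a vector with the remaining 73 bp and a T7-inducible recombinase, co-electroporated into E. coli with a donor plasmid and plated in duplicate on chloramphenicol/ampicillin LB agar (control) or chloramphenicol/ampicillin/kanamycin with 0.1 mM IPTG.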
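Also: IS621 recombinase and bridge RNA in Escherichia coli cells.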

Question: With “CTCTTCGCTTGGGTTCTAACCTGTTGCCT (site CTCTTCGCTAG)” as the sequence, how does the “recombinant barcode read abundance (log10)” value read?
Answer: The value was 0.314.

Question: For “CTGAAGCCTTGGGTTCTAACCTGTTGCCT (site ATGAAGCCTAG)”, which “recombinant barcode read abundance (log10)” value is on record?
Answer: The value was 0.0394.

Question: Which “recombinant barcode read abundance (log10)” value does the source give for “CTGAAGCCTTGGGTTCTAACCTGTTGCCT (site CTGAAGCCTAG)” here?
Answer: The value was 1.74.

Question: For “CTGAAGCCTTGGGTTCTAACCTGTTGCCT (site GTGAAGCCTAG)”, which “recombinant barcode read abundance (log10)” value is on record?
Answer: Its value is 0.386.

Question: With “CTGAAGCCTTGGGTTCTAACCTGTTGCCT (site TTGAAGCCTAG)” as the sequence, how does the “recombinant barcode read abundance (log10)” value read?
Answer: Its value is 0.409.

Question: Which “recombinant barcode read abundance (log10)” value does the source give for “CTGACTTCTTGGGTTCTAACCTGTTGCCT (site CAGACTTCTAG)” here?
Answer: The value was 0.0484.

Question: Which “recombinant barcode read abundance (log10)” value does the source give for “CTGACTTCTTGGGTTCTAACCTGTTGCCT (site CCGACTTCTAG)” here?
Answer: The value was 0.0377.

Question: Which “recombinant barcode read abundance (log10)” value does the source give for “CTGACTTCTTGGGTTCTAACCTGTTGCCT (site CGGACTTCTAG)” here?
Answer: Its value is 0.079.

Question: With “CTGACTTCTTGGGTTCTAACCTGTTGCCT (site CTGACTTCTAG)” as the sequence, how does the “recombinant barcode read abundance (log10)” value read?
Answer: Its value is 0.121.

Question: Which “recombinant barcode read abundance (log10)” value does the source give for “CTGAGTACTTGGGTTCTAACCTGTTGCCT (site ATCAGTACTAG)” here?
Answer: Its value is 0.0653.

Question: Which “recombinant barcode read abundance (log10)” value does the source give for “CTGAGTACTTGGGTTCTAACCTGTTGCCT (site CTGAGTACTAG)” here?
Answer: Its value is 1.08.

Question: With “CTGAGTCCTTGGGTTCTAACCTGTTGCCA (site CTGAGTCCTTG)” as the sequence, how does the “recombinant barcode read abundance (log10)” value read?
Answer: The value was 0.424.

Question: For “CTGAGTCCTTGGGTTCTAACCTGTTGCCA (site CTGAGTTCTTG)”, which “recombinant barcode read abundance (log10)” value is on record?
Answer: The value was 0.402.

Question: Which “recombinant barcode read abundance (log10)” value does the source give for “CTGATCCCTTGGGTTCTAACCTGTTGCCT (site CAGATCCCTAG)” here?
Answer: Its value is 0.629.

Question: For “CTGATCCCTTGGGTTCTAACCTGTTGCCT (site CCGATCCCTAG)”, which “recombinant barcode read abundance (log10)” value is on record?
Answer: The value was 0.182.

Question: Which “recombinant barcode read abundance (log10)” value does the source give for “CTGATCCCTTGGGTTCTAACCTGTTGCCT (site CGGATCCCTAG)” here?
Answer: The value was 0.255.

Question: With “CTGATCCCTTGGGTTCTAACCTGTTGCCT (site CTGATCCCTAG)” as the sequence, how does the “recombinant barcode read abundance (log10)” value read?
Answer: The value was 1.22.

Question: With “CTGATGACTTGGGTTCTAACCTGTTGCCT (site CTGATAACTAG)” as the sequence, how does the “recombinant barcode read abundance (log10)” value read?
Answer: The value was 0.177.

Question: With “CTGATGACTTGGGTTCTAACCTGTTGCCT (site CTGATCACTAG)” as the sequence, how does the “recombinant barcode read abundance (log10)” value read?
Answer: Its value is 0.247.

Question: With “CTGATGACTTGGGTTCTAACCTGTTGCCT (site CTGATGACTAG)” as the sequence, how does the “recombinant barcode read abundance (log10)” value read?
Answer: Its value is 0.999.

Question: Which “recombinant barcode read abundance (log10)” value does the source give for “CTGATGACTTGGGTTCTAACCTGTTGCCT (site CTGATTACTAG)” here?
Answer: The value was 0.0174.

Question: With “CTGATGTCTTGGGTTCTAACCTGTTGCCA (site CTGATGTCTTG)” as the sequence, how does the “recombinant barcode read abundance (log10)” value read?
Answer: Its value is 0.456.

Question: With “CTGATGTCTTGGGTTCTAACCTGTTGCCA (site CTGCTGTCTTG)” as the sequence, how does the “recombinant barcode read abundance (log10)” value read?
Answer: Its value is 0.126.

Question: With “CTGATGTCTTGGGTTCTAACCTGTTGCCA (site CTGGTGTCTTG)” as the sequence, how does the “recombinant barcode read abundance (log10)” value read?
Answer: Its value is 0.388.

Question: With “CTGATGTCTTGGGTTCTAACCTGTTGCCA (site CTGTTGTCTTG)” as the sequence, how does the “recombinant barcode read abundance (log10)” value read?
Answer: Its value is 0.136.

Question: With “CTGCACCCTTGGGTTCTAACCTGTTGCTA (site CTGCACCCTTA)” as the sequence, how does the “recombinant barcode read abundance (log10)” value read?
Answer: The value was 1.61.

Question: Which “recombinant barcode read abundance (log10)” value does the source give for “CTGCACCCTTGGGTTCTAACCTGTTGCTA (site GGCGGAGCTCG)” here?
Answer: Its value is 0.378.

Question: With “CTGCACTCTTGGGTTCTAACCTGTTGCCA (site CTGCACTCTTG)” as the sequence, how does the “recombinant barcode read abundance (log10)” value read?
Answer: Its value is 0.842.

Question: With “CTGCACTCTTGGGTTCTAACCTGTTGCCA (site CTGTACTCTAG)” as the sequence, how does the “recombinant barcode read abundance (log10)” value read?
Answer: The value was 0.28.

Question: Which “recombinant barcode read abundance (log10)” value does the source give for “CTGCAGACTTGGGTTCTAACCTGTTGCCG (site CTCCAGACTCT)” here?
Answer: The value was 0.37.

Question: Which “recombinant barcode read abundance (log10)” value does the source give for “CTGCAGACTTGGGTTCTAACCTGTTGCCG (site CTGCAGACTCG)” here?
Answer: The value was 0.41.

Question: For “CTGCAGTCTTGGGTTCTAACCTGTTGCCA (site CTGCAGTCTTG)”, which “recombinant barcode read abundance (log10)” value is on record?
Answer: The value was 0.18.

Question: For “CTGCAGTCTTGGGTTCTAACCTGTTGCCA (site TGCATAGCTCT)”, which “recombinant barcode read abundance (log10)” value is on record?
Answer: The value was 0.126.

Question: Which “recombinant barcode read abundance (log10)” value does the source give for “CTGCTCCCTTGGGTTCTAACCTGTTGCGG (site CTGATCCCTCC)” here?
Answer: Its value is 0.124.

Question: With “CTGCTCCCTTGGGTTCTAACCTGTTGCGG (site CTGCTCCCTCC)” as the sequence, how does the “recombinant barcode read abundance (log10)” value read?
Answer: Its value is 0.36.

Question: For “CTGCTCCCTTGGGTTCTAACCTGTTGCGG (site CTGGTCCCTCC)”, which “recombinant barcode read abundance (log10)” value is on record?
Answer: Its value is 0.306.

Question: For “CTGCTCCCTTGGGTTCTAACCTGTTGCGG (site CTGTTCCCTCC)”, which “recombinant barcode read abundance (log10)” value is on record?
Answer: The value was 0.0581.

Question: With “CTGGAGACTTGGGTTCTAACCTGTTGCTT (site AGAACTCCTTC)” as the sequence, how does the “recombinant barcode read abundance (log10)” value read?
Answer: The value was 0.0253.

Question: Which “recombinant barcode read abundance (log10)” value does the source give for “CTGGAGACTTGGGTTCTAACCTGTTGCTT (site CTGGAGACTAA)” here?
Answer: The value was 1.93.

Question: With “CTGGCCACTTGGGTTCTAACCTGTTGCCT (site CAGGCCACTAG)” as the sequence, how does the “recombinant barcode read abundance (log10)” value read?
Answer: The value was 0.115.

Question: With “CTGGCCACTTGGGTTCTAACCTGTTGCCT (site CCGGCCACTAG)” as the sequence, how does the “recombinant barcode read abundance (log10)” value read?
Answer: Its value is 0.0832.

Question: With “CTGGCCACTTGGGTTCTAACCTGTTGCCT (site CGGGCCACTAG)” as the sequence, how does the “recombinant barcode read abundance (log10)” value read?
Answer: Its value is 0.0825.

Question: For “CTGGCCACTTGGGTTCTAACCTGTTGCCT (site CTGGCCACTAG)”, which “recombinant barcode read abundance (log10)” value is on record?
Answer: The value was 0.766.
